Experimental data: patent US6322771A, “Induction of pharmacological stress with adenosine receptor agonists” (priority 1999, dated 2001)
Where two headings read alike, the source gives them in different places.

How the values were obtained:
A1 adenosine receptors = details: A1 versus A2A adenosine receptors; cited from earlier work
[1] = system: dog with critical LAD stenosis
Procedure: Following a 15 minute baseline stabilization period, the LAD snare occluder was tightened to produce a critical LAD stenosis. A critical stenosis was defined as one that produced no change in resting coronary flow, however coronary flow reserve was completely abolished. […] Five minutes later, an in vivo image was acquired and the animal was then immediately killed to prevent ^99m Tc-N-NOET redistribution. The heart was removed and sliced into 4 rings from apex to base. The heart slices were placed on a cardboard sheet, covered with plastic wrap, and ex vivo imaging of the heart slices was performed directly on the collimator of a conventional planar gamma camera. Image background subtraction was performed on the in vivo image using standard nuclear medicine software developed for this purpose. Defect magnitude was expressed as an LAD/LCX count ratio between counts in LAD and LCX regions of interest drawn on the in vivo and ex vivo heart images.

adult mongrel dogs = details: for LCX coronary flow: baseline 42 ml/min
patients [2] = details: 9,256 patients; cited from earlier work
patients [3] = details: 3,911 patients; cited from earlier work
patients [4] = details: 3,715 patients; cited from earlier work

Question: With `Nc1nc(Cl)nc2c1ncn2[C@@H]1O[C@H](CO)[C@@H](O)[C@H]1O` [Cl-Ado, 2-chloroadenosine] as the compound, how does the “receptor subtype preference as activator” value (A1 adenosine receptors) read?
Answer: more potent activator of A1 adenosine receptors than of A2A adenosine receptors

Question: Which “increase of coronary flow in the normal LCX coronary artery” value ([1]; 0.3 μg/kg/min i.v. infusion) does the source give for `CCNC(=O)[C@H]1O[C@@H](n2cnc3c(N)nc(C#CC[C@H]4CC[C@H](C(=O)OC)CC4)nc32)[C@H](O)[C@@H]1O` [DWH-146e] here?
Answer: ~5 fold

Question: What about the “in vivo and ex vivo 99mTc-N-NOET images” value ([1]; critical LAD stenosis) of the same compound?
Answer: readily detectable large anteroseptal perfusion defects

Question: What about the “change in mean arterial pressure” value ([1]; dog, in vivo) of the same compound?
Answer: no change

Question: What about the “Heart Rate” value ([1]; peak, 0.3 μg/kg/min i.v. infusion, baseline 109, stenosis 123) of the same compound?
Answer: 143 BPM

Question: And the dP/dt ([1]; peak, 0.3 μg/kg/min i.v. infusion, baseline 2906, stenosis 2713)?
Answer: 2606 mm Hg · sec-1

Question: And the “LCX coronary flow” value ([1]; peak, 0.3 μg/kg/min i.v. infusion, normal artery, baseline 39, stenosis 38)?
Answer: 185 mL/min

Question: What about the “LAD Coronary Flow” value ([1]; peak, 0.3 μg/kg/min i.v. infusion, stenosed artery, baseline 39, stenosis 37) of the same compound?
Answer: 42 mL/min

Question: Which LCX coronary flow (adult mongrel dogs; 0.05 μg/kg/min x 10 min i.v. infusion) does the source give for `CCNC(=O)[C@H]1O[C@@H](n2cnc3c(N)nc(C#CCC4CCC(COC(C)=O)CC4)nc32)[C@H](O)[C@@H]1O` (stereo partly drawn) [JMR-193e, [4-(3-{9[(4S,5S,2R,3R)-5-(N-ethylcarbamoyl)-3,4-dihydroxyoxolan-2-yl]-6-aminopurin-2-yl}prop-2-ynyl)cyclohexyl]methyl acetate] here?
Answer: 66 mL/min

Question: And the LCX coronary flow (adult mongrel dogs; 0.1 μg/kg/min x 10 min i.v. infusion)?
Answer: 75 mL/min

Question: What about the LCX coronary flow (adult mongrel dogs; 0.2 μg/kg/min x 10 min i.v. infusion) of the same compound?
Answer: 124 mL/min

Question: And the LCX coronary flow (adult mongrel dogs; 0.3 μg/kg/min x 10 min i.v. infusion)?
Answer: 153 mL/min

Question: What about the LCX coronary flow (adult mongrel dogs; 0.4 μg/kg/min x 10 min i.v. infusion) of the same compound?
Answer: 140 mL/min

Question: What about the “time flow remained elevated more than 2x normal” value (adult mongrel dogs; bolus 0.3 μg/kg) of the same compound?
Answer: 3 to 4 min

Question: And the “time of maximal LCX flow post-injection” value (adult mongrel dogs; bolus 0.3 μg/kg)?
Answer: 2.3 min

Question: And the LCX flow (adult mongrel dogs; bolus 0.3 μg/kg, from 41 ml/min)?
Answer: 140 mL/min

Question: What about the “pharmacodynamic t1/2” value (adult mongrel dogs; return of hemodynamics to baseline after terminating the infusion) of the same compound?
Answer: 12 ± 2 min

Question: For `Nc1ncnc2c1ncn2[C@@H]1O[C@H](CO)[C@@H](O)[C@H]1O` [adenosine], which A-V conduction block (patients [2]) is on record?
Answer: 8%

Question: And the ECG changes (patients [2])?
Answer: 9%

Question: What about the chest pain (patients [2]) of the same compound?
Answer: 35%

Question: And the flushing (patients [2])?
Answer: 37%

Question: What about the headache (patients [2]) of the same compound?
Answer: 14%

Question: What about the “patients with adverse side effects” value (patients [2]) of the same compound?
Answer: 82%

Question: And the “shortness of breath or dyspnea” value (patients [2])?
Answer: 35%

Question: What about the LCX flow (adult mongrel dogs; i.v. 250 μg/kg/min x 3 min) of the same compound?
Answer: 139 mL/min

Question: And the arterial pressure (adult mongrel dogs; i.v. 250 μg/kg/min x 3 min, from 109 mm Hg)?
Answer: 80 mm Hg

Question: Which “ST-segment changes on ECG” value (patients [3]) does the source give for `OCCN(CCO)c1nc(N2CCCCC2)c2nc(N(CCO)CCO)nc(N3CCCCC3)c2n1` [dipyridamole] here?
Answer: 8%

Question: What about the headaches (patients [3]) of the same compound?
Answer: 12%

Question: And the “fall of mean systolic blood pressure” value (patients [4])?
Answer: 14 mm Hg

Question: And the “patients with a >20% drop in systolic blood pressure” value (patients [4])?
Answer: 11%
